Source: patent US10005739B2, “Quinazolinone and isoquinolinone derivative” (CHUGAI SEIYAKU KABUSHIKI KAISHA, priority 2013, dated 2018)

Target: DDR1 (Homo sapiens (Human), UniProt Q08345)
Test: Measurement of DDR1 enzyme inhibitory activity (phosphorylation of biotinylated peptide, time-resolved fluorescence)
Assay type: biochemical
Conditions: human DDR1 enzyme, biotinylated peptide phosphorylation; read-out: DDR1 enzyme inhibition assay IC50
In short: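 Baculovirus-expressed human DDR1 phosphorylated a biotinylated peptide, and inhibition of that phosphorylation was measured. Phosphopeptide was detected by time-resolved fluorescence using europium cryptate–labelled anti-phosphotyrosine antibody with streptavidin-XL665.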

Sequence of DDR1 (Q08345 19-913): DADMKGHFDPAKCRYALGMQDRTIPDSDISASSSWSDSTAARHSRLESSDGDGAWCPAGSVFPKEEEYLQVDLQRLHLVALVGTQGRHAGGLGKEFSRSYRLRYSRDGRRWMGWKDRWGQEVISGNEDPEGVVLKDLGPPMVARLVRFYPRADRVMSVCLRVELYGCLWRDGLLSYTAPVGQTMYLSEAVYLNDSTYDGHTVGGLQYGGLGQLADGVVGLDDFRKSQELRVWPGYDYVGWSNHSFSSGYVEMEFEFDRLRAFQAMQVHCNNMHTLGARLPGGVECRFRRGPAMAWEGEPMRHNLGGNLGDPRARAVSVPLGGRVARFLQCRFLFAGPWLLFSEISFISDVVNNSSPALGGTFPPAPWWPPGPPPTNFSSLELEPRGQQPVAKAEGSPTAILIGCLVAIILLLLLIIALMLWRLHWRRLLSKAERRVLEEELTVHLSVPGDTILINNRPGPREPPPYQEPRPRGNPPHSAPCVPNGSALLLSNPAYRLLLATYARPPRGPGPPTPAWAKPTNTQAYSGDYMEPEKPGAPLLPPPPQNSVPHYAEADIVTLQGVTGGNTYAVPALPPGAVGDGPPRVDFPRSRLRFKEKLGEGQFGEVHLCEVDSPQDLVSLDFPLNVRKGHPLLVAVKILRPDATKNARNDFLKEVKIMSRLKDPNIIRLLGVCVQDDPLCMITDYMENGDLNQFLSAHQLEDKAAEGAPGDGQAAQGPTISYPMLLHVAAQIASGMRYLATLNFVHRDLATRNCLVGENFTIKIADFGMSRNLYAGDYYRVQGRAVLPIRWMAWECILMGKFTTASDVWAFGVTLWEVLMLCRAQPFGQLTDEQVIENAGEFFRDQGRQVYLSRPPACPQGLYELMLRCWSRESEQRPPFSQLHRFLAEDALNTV

In order of rising IC50:
1. CCS(=O)(=O)c1ccc(Cl)cc1Nn1cnc2ccc(SC)cc2c1=O [Compound A-66, 3-(5-Chloro-2-ethylsulfonylanilino)-6-methylsulfanylquinazolin-4-one]  52 nM
2. CCSc1ccc(Cl)cc1Nn1cnc2ccc(C)cc2c1=O [Compound A-50, 3-(5-Chloro-2-ethylsulfanylanilino)-6-methylquinazolin-4-one]  57 nM
3. CCSc1ccc(Cl)cc1Nn1cnc2ccc(OC)cc2c1=O [Compound A-34, 3-(5-Chloro-2-ethylsulfanylanilino)-6-methoxyquinazolin-4-one]  68 nM
4. CCSc1ccc(Cl)cc1Nn1cnc2ccc(F)cc2c1=O [Compound A-28, 3-(5-Chloro-2-ethylsulfanylanilino)-6-fluoroquinazolin-4-one]  88 nM
5. CCSc1ccc(Cl)cc1Nn1cnc2ccc([N+](=O)[O-])cc2c1=O [Compound A-56, 3-(5-Chloro-2-ethylsulfanylanilino)-6-nitroquinazolin-4-one]  99 nM
6. CCSc1ccc(Cl)cc1Nn1cnc2cc(F)c(F)cc2c1=O [Compound A-30, 3-(5-Chloro-2-ethylsulfanylanilino)-6,7-difluoroquinazolin-4-one]  100 nM
7. CCSc1ccc(C#N)cc1Nn1cnc2c(Br)cc(OC(F)(F)F)cc2c1=O [Compound C-13]  110 nM
8. CCSc1ccc(C#N)cc1Nn1cnc2c(Br)cc(C)cc2c1=O [Compound C-1, 3-[(8-Bromo-6-methyl-4-oxoquinazolin-3-yl)amino]-4-ethylsulfanylbenzonitrile]  110 nM
9. CCS(=O)(=O)c1ccc(Cl)cc1Nn1cnc2ccc([N+](=O)[O-])cc2c1=O [Compound A-57, 3-(5-Chloro-2-ethylsulfonylanilino)-6-nitroquinazolin-4-one]  120 nM
10. CCSc1ccc(Cl)cc1Nn1cnc2cnc(Cl)cc2c1=O [Compound A-14, 6-Chloro-3-(5-chloro-2-ethylsulfanylanilino)pyrido[3,4-d]pyrimidin-4-one]  130 nM
11. CCSc1ccc(C#N)cc1Nn1cnc2cc(C)c(Br)cc2c1=O [Compound C-5, 3-[(6-bromo-7-methyl-4-oxoquinazolin-3-yl)amino]-4-ethylsulfanylbenzonitrile]  130 nM
12. CCS(=O)(=O)c1ccc(OC)cc1Nn1cnc2c(Br)cc(C(F)(F)F)cc2c1=O [Compound C-30, 8-Bromo-3-(2-ethylsulfonyl-5-methoxyanilino)-6-(trifluoromethyl)quinazolin-4-one]  150 nM
13. Cc1cc(Br)c2ncn(Nc3cc(Cl)ccc3S(C)(=O)=O)c(=O)c2c1 [Compound B-2, 8-Bromo-3-(5-chloro-2-methylsulfonylanilino)-6-methylquinazolin-4-one]  160 nM
14. CCSc1ccc(OC)cc1Nn1cnc2c(Br)cc(C(F)(F)F)cc2c1=O [Compound C-29, 8-Bromo-3-(2-ethylsulfanyl-5-methoxyanilino)-6-(trifluoromethyl)quinazolin-4-one]  160 nM
15. CCSc1ccc(Cl)cc1Nn1cnc2ccc(C(F)(F)F)cc2c1=O [Compound A-9, 3-(5-Chloro-2-ethylsulfanylanilino)-6-(trifluoromethyl)quinazolin-4-one]  180 nM
16. CCSc1cc(Cl)c(Cl)cc1Nn1cnc2ccc(C(F)(F)F)cc2c1=O [Compound C-40, 3-(4,5-Dichloro-2-ethylsulfanylanilino)-6-(trifluoromethyl)quinazolin-4-one]  190 nM
17. CCSc1ccc(Cl)cc1Nn1cnc2ccc(SC)cc2c1=O [Compound A-48, 3-(5-Chloro-2-ethylsulfanylanilino)-6-methylsulfanylquinazolin-4-one]  200 nM
18. CCS(=O)(=O)c1ccc(C(F)(F)F)cc1Nn1cnc2c(Br)cc(C(F)(F)F)cc2c1=O [Compound C-35, 8-Bromo-3-[2-ethylsulfonyl-5-(trifluoromethyl)anilino]-6-(trifluoromethyl)quinazolin-4-one]  210 nM
19. CCSc1ccc(C#N)cc1Nn1cnc2cc(Br)c(OC(F)(F)F)cc2c1=O [Compound C-17, 3-[[7-Bromo-4-oxo-6-(trifluoromethoxy)quinazolin-3-yl]amino]-4-ethylsulfanylbenzonitrile]  230 nM
20. CCCc1ccc2ncn(Nc3cc(Cl)ccc3S(=O)(=O)CC)c(=O)c2c1 [Compound A-55, 3-(5-Chloro-2-ethylsulfonylanilino)-6-propylquinazolin-4-one]  240 nM
21. CCSc1ccc(Cl)cc1Nn1cnc2cnc(OC)cc2c1=O [Compound A-21, 3-(5-Chloro-2-ethylsulfanylanilino)-6-methoxypyrido[3,4-d]pyrimidin-4-one]  270 nM
22. CCS(=O)(=O)c1ccc(C#N)cc1Nn1cnc2ccc(OC(F)(F)F)cc2c1=O [Compound C-16, 4-Ethylsulfonyl-3-[[4-oxo-6-(trifluoromethoxy)quinazolin-3-yl]amino]benzonitrile]  270 nM
23. CCS(=O)(=O)c1ccc(OC)cc1Nn1cnc2ccc(OC(F)(F)F)cc2c1=O [Compound C-28, 3-(2-Ethylsulfonyl-5-methoxyanilino)-6-(trifluoromethoxy)quinazolin-4-one]  290 nM
24. CCS(=O)(=O)c1cc(Cl)c(C#N)cc1Nn1cnc2ccc(C(F)(F)F)cc2c1=O [Compound C-43, 2-Chloro-4-ethylsulfonyl-5-[[4-oxo-6-(trifluoromethyl)quinazolin-3-yl]amino]benzonitrile]  330 nM
25. CCOc1ccc(SCC)c(Nn2cnc3c(Br)cc(C(F)(F)F)cc3c2=O)c1 [Compound C-31, 8-Bromo-3-(5-ethoxy-2-ethylsulfanylanilino)-6-(trifluoromethyl)quinazolin-4-one]  330 nM
26. CCSc1ccc(Cl)cc1Nn1cnc2cc3c(cc2c1=O)OCO3 [Compound A-40, 7-(5-Chloro-2-ethylsulfanylanilino)-[1,3]dioxolo[4,5-g]quinazolin-8-one]  350 nM
27. CCSc1ccc(Br)cc1Nn1cnc2c(Br)cc(OC(F)(F)F)cc2c1=O [Compound C-23, 8-Bromo-3-(5-bromo-2-ethylsulfanylanilino)-6-(trifluoromethoxy)quinazolin-4-one]  400 nM
28. CCSc1ccc(Cl)cc1Nn1cnc2c(Br)cc(OC(F)(F)F)cc2c1=O [Compound A-46, 8-Bromo-3-(5-chloro-2-ethylsulfanylanilino)-6-(trifluoromethoxy)quinazolin-4-one]  420 nM
29. CCS(=O)(=O)c1ncc(Cl)cc1Nn1cnc2ccc(C(F)(F)F)cc2c1=O [Compound D-3, 3-[(5-Chloro-2-ethylsulfonylpyridin-3-yl)amino]-6-(trifluoromethyl)quinazolin-4-one]  430 nM
30. CCOc1ccc2ncn(Nc3cc(Cl)ccc3S(=O)(=O)CC)c(=O)c2c1 [Compound A-37, 3-(5-Chloro-2-ethylsulfonylanilino)-6-ethoxyquinazolin-4-one]  430 nM
31. CCSc1ccc(Cl)cc1Nn1cnc2cc(OC)c(OC)cc2c1=O [Compound A-38, 3-(5-Chloro-2-ethylsulfanylanilino)-6,7-dimethoxyquinazolin-4-one]  480 nM
32. CCSc1ncc(Cl)cc1Nn1cnc2c(Br)cc(C)cc2c1=O [Compound D-4, 8-Bromo-3-[(5-chloro-2-ethylsulfanylpyridin-3-yl)amino]-6-methylquinazolin-4-one]  580 nM
33. CCSc1ccc(Cl)cc1Cn1cnc2c(Br)cc(C)cc2c1=O [Compound E-1, 8-Bromo-3-[(5-chloro-2-ethylsulfanylphenyl)methyl]-6-methylquinazolin-4-one]  640 nM
34. Cc1cc(Br)c2ncn(Nc3cc(Cl)ccc3[S+]([O-])c3ccccc3)c(=O)c2c1 (stereo not shown) [Compound B-13, 3-[2-(Benzenesulfinyl)-5-chloroanilino]-8-bromo-6-methylquinazolin-4-one]  740 nM
35. CCS(=O)(=O)c1ccc(Cl)cc1Nn1cnc2cnc(OC)cc2c1=O [Compound A-22, 3-(5-Chloro-2-ethylsulfonylanilino)-6-methoxypyrido[3,4-d]pyrimidin-4-one]  1930 nM
36. CCS(=O)(=O)c1ccc(N)cc1Cn1ccc2ccc(C(F)(F)F)cc2c1=O [Compound F-7, 2-[(5-Amino-2-ethylsulfonylphenyl)methyl]-7-(trifluoromethyl)isoquinolin-1-one]  2080 nM
37. CCS(=O)(=O)c1ccc(Cl)cc1Nn1cnc2ccc(S(C)(=O)=O)cc2c1=O [Compound A-49, 3-(5-Chloro-2-ethylsulfonylanilino)-6-methylsulfonylquinazolin-4-one]  2130 nM
38. CCSc1ncc(Cl)cc1Nn1cnc2c(Br)cccc2c1=O [Compound D-1, 8-Bromo-3-[(5-chloro-3-ethylsulfanylpyridin-3-yl)amino]quinazolin-4-one]  2360 nM
39. CCS(=O)(=O)c1ccc(Cl)cc1Nn1cnc2ccc(N)cc2c1=O [Compound A-58, 6-Amino-3-(5-chloro-2-ethylsulfonylanilino)quinazolin-4-one]  4050 nM
40. CCS(=O)(=O)c1ccc(Cl)cc1Nn1cnc2cnc(F)cc2c1=O [Compound A-20, 3-(5-Chloro-2-ethylsulfonylanilino)-6-fluoropyrido[3,4-d]pyrimidin-4-one]  7640 nM

Same assay, conditions: read-out: DDR1 enzyme inhibition assay IC50

In order of rising IC50:
1. CCS(=O)(=O)c1ccc(Cl)cc1Cn1cnc2c(Br)c(CN3CCNCC3)c(Br)cc2c1=O [Compound L-11, 6,8-Dibromo-3-[(5-chloro-2-ethylsulfonylphenyl)methyl]-7-(piperazin-1-ylmethyl)quinazolin-4-one]  90 nM
2. CCS(=O)(=O)c1ccc(Cl)cc1Cn1cnc2cc(CN3CC[C@H](N)C3)c(Br)cc2c1=O [Compound J-8, 7-[[(3S)-3-Aminopyrrolidin-1-yl]methyl]-6-bromo-3-[(5-chloro-2-ethylsulfonylphenyl)methyl]quinazolin-4-one]  140 nM
3. CCS(=O)(=O)c1ccc(Cl)cc1Cn1cnc2c(Br)c(CN3CCN(C(C)C)CC3)c(Br)cc2c1=O [Compound L-12, 6,8-Dibromo-3-[(5-chloro-2-ethylsulfonylphenyl)methyl]-7-[(4-propan-2-ylpiperazin-1-yl)methyl]quinazolin-4-one]  200 nM
